Values of other authors in patent US9999602B2, “Liquid menthol compositions” (DDROPS COMPANY, priority 2013, dated 2018).

Conditions: FDA review, Federal Register 1987

In the case of `CC(C)[C@@H]1CC[C@@H](C)C[C@H]1O` [menthol, (1R, 2S, 5R)-5-menthol-2-(1-methylethyl)-cyclohexanol], the “Dose of menthol required for antitussive (cough-suppressant) effect” value is given as “at least 5 mg”.
